Measured values reported in PubChem BioAssay (NCI).
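Each compound was tested at five concentrations against cells in 96-well plates for 48 hours. TGI: total growth inhibition.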

Columns and labels:
Experiment in all cases: DTP human tumour cell line panel, 48 h
SW-620 colon = test system: SW-620 colon
RPMI-8226 leukemia = test system: RPMI-8226 leukemia
SR leukemia = test system: SR leukemia
NCI-H522 lung = test system: NCI-H522 lung
XF 498 CNS = test system: XF 498 CNS
U251 CNS = test system: U251 CNS
MALME-3M melanoma = test system: MALME-3M melanoma
K-562 leukemia = test system: K-562 leukemia
NCI-H23 lung = test system: NCI-H23 lung
CAKI-1 renal = test system: CAKI-1 renal
RXF 393 renal = test system: RXF 393 renal
SNB-75 CNS = test system: SNB-75 CNS
RXF-631 renal = test system: RXF-631 renal
DMS 114 small cell lung = test system: DMS 114 small cell lung
SK-MEL-5 melanoma = test system: SK-MEL-5 melanoma
OVCAR-3 ovarian = test system: OVCAR-3 ovarian
HOP-92 NSCLC = test system: HOP-92 NSCLC
MOLT-4 leukemia = test system: MOLT-4 leukemia
SK-OV-3 ovarian = test system: SK-OV-3 ovarian
ACHN renal = test system: ACHN renal
IGROV1 ovarian = test system: IGROV1 ovarian
HOP-18 NSCLC = test system: HOP-18 NSCLC
M14 melanoma = test system: M14 melanoma
SF-539 CNS = test system: SF-539 CNS
SNB-19 CNS = test system: SNB-19 CNS
A549 NSCLC = test system: A549 NSCLC
NCI-H460 lung = test system: NCI-H460 lung
OVCAR-5 ovarian = test system: OVCAR-5 ovarian
OVCAR-4 ovarian = test system: OVCAR-4 ovarian
LOX IMVI melanoma = test system: LOX IMVI melanoma
HOP-62 NSCLC = test system: HOP-62 NSCLC
NCI-H226 lung = test system: NCI-H226 lung
UACC-257 melanoma = test system: UACC-257 melanoma
HL-60(TB) leukemia = test system: HL-60(TB) leukemia
LXFL 529 NSCLC = test system: LXFL 529 NSCLC
DMS 273 small cell lung = test system: DMS 273 small cell lung
TK-10 renal = test system: TK-10 renal
M19-MEL melanoma = test system: M19-MEL melanoma
SK-MEL-28 melanoma = test system: SK-MEL-28 melanoma
COLO 205 colon = test system: COLO 205 colon
A498 renal = test system: A498 renal
UACC-62 melanoma = test system: UACC-62 melanoma
OVCAR-8 ovarian = test system: OVCAR-8 ovarian
SF-268 CNS = test system: SF-268 CNS
SNB-78 CNS = test system: SNB-78 CNS
SF-295 CNS = test system: SF-295 CNS
CCRF-CEM leukemia = test system: CCRF-CEM leukemia
KM12 colon = test system: KM12 colon
SK-MEL-2 melanoma = test system: SK-MEL-2 melanoma
786-0 renal = test system: 786-0 renal
SN12C renal = test system: SN12C renal
EKVX NSCLC = test system: EKVX NSCLC
HT29 colon = test system: HT29 colon
UO-31 renal = test system: UO-31 renal
HCT-116 colon = test system: HCT-116 colon
DLD-1 colon = test system: DLD-1 colon
HS 578T breast = test system: HS 578T breast
MDA-MB-435 = test system: MDA-MB-435
BT-549 breast = test system: BT-549 breast
MDA-MB-231 breast = test system: MDA-MB-231 breast
DU-145 prostate = test system: DU-145 prostate
HCC-2998 colon = test system: HCC-2998 colon
MDA-N = test system: MDA-N
T-47D breast = test system: T-47D breast
PC-3 prostate = test system: PC-3 prostate
HCT-15 colon = test system: HCT-15 colon
KM20L2 colon = test system: KM20L2 colon
MCF7 breast = test system: MCF7 breast

CCCCCCCCCCC(O)CCCCCCC(=O)O (centres undefined)
TGI (SW-620 colon): 86.5 µM
TGI (RPMI-8226 leukemia): 28.2 µM
TGI (SR leukemia): 41.9 µM
TGI (NCI-H522 lung): 62.5 µM
TGI (XF 498 CNS): 88.9 µM
TGI (U251 CNS): 45.8 µM
TGI (MALME-3M melanoma): 59.5 µM
TGI (K-562 leukemia): 39.1 µM
TGI (NCI-H23 lung): > 100 µM
TGI (CAKI-1 renal): > 100 µM
TGI (RXF 393 renal): 98 µM
TGI (SNB-75 CNS): > 100 µM
TGI (RXF-631 renal): 39.1 µM
TGI (DMS 114 small cell lung): 56.2 µM
TGI (SK-MEL-5 melanoma): 29.9 µM
TGI (OVCAR-3 ovarian): 45.3 µM
TGI (HOP-92 NSCLC): 37.3 µM
TGI (MOLT-4 leukemia): 34.5 µM
TGI (SK-OV-3 ovarian): > 100 µM
TGI (ACHN renal): 54 µM
TGI (IGROV1 ovarian): 34.6 µM
TGI (HOP-18 NSCLC): 63 µM
TGI (M14 melanoma): 44.3 µM
TGI (SF-539 CNS): 67.3 µM
TGI (SNB-19 CNS): > 100 µM
TGI (A549 NSCLC): 54.7 µM
TGI (NCI-H460 lung): 32.4 µM
TGI (OVCAR-5 ovarian): > 100 µM
TGI (OVCAR-4 ovarian): > 100 µM
TGI (LOX IMVI melanoma): 31.1 µM
TGI (HOP-62 NSCLC): > 100 µM
TGI (NCI-H226 lung): > 100 µM
TGI (UACC-257 melanoma): > 100 µM
TGI (HL-60(TB) leukemia): 25.6 µM
TGI (LXFL 529 NSCLC): 71 µM
TGI (DMS 273 small cell lung): 55.6 µM
TGI (TK-10 renal): > 100 µM
TGI (M19-MEL melanoma): > 100 µM
TGI (SK-MEL-28 melanoma): > 100 µM
TGI (COLO 205 colon): 30 µM
TGI (A498 renal): 46.1 µM
TGI (UACC-62 melanoma): 41.7 µM
TGI (OVCAR-8 ovarian): 31.1 µM
TGI (SF-268 CNS): > 100 µM
TGI (SNB-78 CNS): > 100 µM
TGI (SF-295 CNS): 80.8 µM
TGI (CCRF-CEM leukemia): 91.3 µM
TGI (KM12 colon): 31.6 µM
TGI (SK-MEL-2 melanoma): > 100 µM
TGI (786-0 renal): 93.3 µM
TGI (SN12C renal): 50.7 µM
TGI (EKVX NSCLC): > 100 µM
TGI (HT29 colon): 40.6 µM
TGI (UO-31 renal): > 100 µM
TGI (HCT-116 colon): 33.3 µM
TGI (DLD-1 colon): 59.7 µM

CCc1cccc(CC)c1NC(=O)C(C#N)C1=C(Cl)C(=O)c2ccccc2C1=O (centres undefined)
TGI (SW-620 colon): 31.2 µM
TGI (RPMI-8226 leukemia): 23.4 µM
TGI (HS 578T breast): 9.32 µM
TGI (SR leukemia): > 28.9 µM
TGI (NCI-H522 lung): 23 µM
TGI (XF 498 CNS): 29.4 µM
TGI (U251 CNS): 33.7 µM
TGI (MALME-3M melanoma): 21 µM
TGI (K-562 leukemia): 14.1 µM
TGI (NCI-H23 lung): 24.3 µM
TGI (CAKI-1 renal): 24.7 µM
TGI (MDA-MB-435): 27.9 µM
TGI (RXF 393 renal): 29.8 µM
TGI (SNB-75 CNS): 17.4 µM
TGI (BT-549 breast): 24.8 µM
TGI (RXF-631 renal): > 56.8 µM
TGI (MDA-MB-231 breast): 21.6 µM
TGI (DMS 114 small cell lung): 65.4 µM
TGI (SK-MEL-5 melanoma): 28.2 µM
TGI (OVCAR-3 ovarian): 36.9 µM
TGI (HOP-92 NSCLC): 8.89 µM
TGI (MOLT-4 leukemia): 20.3 µM
TGI (SK-OV-3 ovarian): 42.4 µM
TGI (ACHN renal): 30.5 µM
TGI (IGROV1 ovarian): 32 µM
TGI (HOP-18 NSCLC): 28.9 µM
TGI (M14 melanoma): 35.1 µM
TGI (SF-539 CNS): 25.6 µM
TGI (SNB-19 CNS): 44.4 µM
TGI (DU-145 prostate): 30.5 µM
TGI (A549 NSCLC): 40.9 µM
TGI (NCI-H460 lung): 52 µM
TGI (OVCAR-5 ovarian): 34.5 µM
TGI (OVCAR-4 ovarian): 31.6 µM
TGI (LOX IMVI melanoma): 45.1 µM
TGI (HOP-62 NSCLC): 21.4 µM
TGI (NCI-H226 lung): 29.8 µM
TGI (HCC-2998 colon): 31.2 µM
TGI (UACC-257 melanoma): 32.2 µM
TGI (MDA-N): 30.3 µM
TGI (HL-60(TB) leukemia): 5.28 µM
TGI (LXFL 529 NSCLC): 30.1 µM
TGI (DMS 273 small cell lung): 45.3 µM
TGI (TK-10 renal): 35.9 µM
TGI (M19-MEL melanoma): 47.2 µM
TGI (SK-MEL-28 melanoma): 41 µM
TGI (COLO 205 colon): 49.1 µM
TGI (A498 renal): 36.5 µM
TGI (T-47D breast): 18.1 µM
TGI (PC-3 prostate): 25.9 µM
TGI (HCT-15 colon): 42.9 µM
TGI (UACC-62 melanoma): 31.7 µM
TGI (OVCAR-8 ovarian): 57.1 µM
TGI (SF-268 CNS): 36 µM
TGI (SNB-78 CNS): 40.8 µM
TGI (SF-295 CNS): 29.9 µM
TGI (CCRF-CEM leukemia): 15.6 µM
TGI (KM20L2 colon): 43.8 µM
TGI (KM12 colon): 35.5 µM
TGI (MCF7 breast): 34.5 µM
TGI (SK-MEL-2 melanoma): 34.7 µM
TGI (786-0 renal): 31 µM
TGI (SN12C renal): 31.3 µM
TGI (EKVX NSCLC): 36 µM
TGI (HT29 colon): 39.7 µM
TGI (UO-31 renal): 24.3 µM
TGI (HCT-116 colon): 34 µM
TGI (DLD-1 colon): 45.2 µM
